Data on 30 molecules can be found in US4705799A, “Aminomethyl oxooxazolidinyl benzenes useful as antibacterial agents” (E. I. Du Pont de Nemours and Company, priority 1985, dated 1987).

One experiment relates to Escherichia coli. The experiment is described as follows: In vitro broth dilution minimal inhibitory concentration (standard microdilution method). In kind it is cell-based. The conditions noted are these: Escherichia coli, read-out: Microdilution Broth MIC.
For experiment [1], the system named is Staphylococcus epidermidis. Described as above. In kind it is cell-based. The conditions noted are these: 24 h, read-out: Microdilution Broth MIC.
Experiment [2] has as its system Staphylococcus aureus. The experiment is described as follows: In vivo efficacy of orally administered compounds in mouse intraperitoneal infections. The conditions noted are these: Staphylococcus aureus, po, 168 h, read-out: ED50 (50 percent effective dose). How it is done:
(§1) Determinations of in vivo efficacy are performed by inoculating mice intraperitoneally with cultures of the infecting organism diluted to produce 90-100% mortality in control animals within twenty-four hours. The diluents used were trypticase soy broth for E. coli and 5% aqueous hog gastric mucin for Staphylococcus aureus infections. The compounds are dissolved or suspended in 0.25% aqueous Methocel® (Methocel®: Hydroxypropyl Methylcellulose E15 Premium, Dow Chemical Company) for oral administration or sterile distilled water containing 5% dimethylsulfoxide (Fisher Scientific Company, Fairlawn, N.J.) for subcutaneous administration. The mice are dosed at the time of infection and again at four hours post-infection. Mortality is recorded daily until test termination seven days post infection and the 50 percent effective dose, ED50, is calculated by the Reed-Muench method (Reed, L. G. and Muench, H., "A simple method of estimating fifty percent end points," American Journal of Hygiene, 27, 493-497 (1938).

Experiment [3] concerns Staphylococcus aureus. The experiment is described as follows: In vivo efficacy of compounds administered subcutaneously in mouse intraperitoneal infections. The conditions noted are these: sc, 168 h; mouse i.p. Staphylococcus aureus infection; subcutaneous; dosed at infection and 4 h post-infection; 7 days; read-out: ED50 (50 percent effective dose). How it is done:
as §1

Where [4] appears, read: mouse i.p. Staphylococcus aureus infection, oral, dosed at infection and 4 h post-infection, 7 days.

≈ marks a conversion by molar mass, not a printed value. Where a name gives a salt, the structure may show the parent alone. Read-outs that look alike come from different tables or passages of the source.

For the molecule `CS(=O)(=O)c1ccc(N2CC(CN)OC2=O)cc1` (racemic) [Example 10, (dl)-5-Aminomethyl-3-[4-(methylsulfonyl)phenyl]-2-oxazolidinone trifluoroacetic Acid Salt], the minimum inhibitory concentration (MIC) in the experiment with Escherichia coli (Mueller-Hinton broth, 24-hour) was greater than 100 µg/mL; in experiment [1] (Mueller-Hinton broth, 24-hour), 50 µg/mL.
As to `CC(C)c1ccc(N2CC(CNC(=O)CN)OC2=O)cc1` (racemic) [Example 157, (dl)-2-Amino-N-[3-[4-(1-methylethyl)phenyl]-2-oxooxazolidin-5-ylmethyl]acetamide], the MIC in the experiment with Escherichia coli (Mueller-Hinton broth, 24-hour) was greater than 200 µg/mL; in experiment [1] (Mueller-Hinton broth, 24-hour), 50 µg/mL (≈ 172 µM). Besides, the ED50 in the experiment on Staphylococcus aureus [2] (setting [4]) was 58.9 mg/kg; in the experiment with Staphylococcus aureus [3], 19.6 mg/kg.
As for `NCC1CN(c2ccc(S(N)(=O)=O)cc2)C(=O)O1` (single isomer, unassigned) [Example 12, (l)-4-[5-(Aminomethyl)-2-oxooxazolidin-3-yl]benzenesulfonamide], the MIC is greater than 100 µg/mL in the experiment with Escherichia coli (Mueller-Hinton broth, 24-hour) and greater than 100 µg/mL in experiment [1] (Mueller-Hinton broth, 24-hour). Also, the ED50 in the experiment with Staphylococcus aureus [2] (setting [4]) is 179 mg/kg; with Staphylococcus aureus [3], 89.8 mg/kg.
Take `NS(=O)(=O)c1ccc(N2CC(CNC=O)OC2=O)cc1` (single isomer, unassigned) [Example 24, (l)-N-[3-[4-(Aminosulfonyl)phenyl]-2-oxooxazolidin-5-ylmethyl]formamide]: the MIC is greater than 100 µg/mL with Escherichia coli (Mueller-Hinton broth, 24-hour) and greater than 100 µg/mL in experiment [1] (Mueller-Hinton broth, 24-hour). For the same molecule, the ED50 in the experiment with Staphylococcus aureus [2] (setting [4]) came to 74.3 mg/kg.
Turning to `CC(=O)NCC1CN(c2ccc(C(C)=NN)cc2)C(=O)O1` (single isomer, unassigned) [Example 131, (l)-N-[3-[4-(1-Hydrazonoethyl)phenyl]-2-oxo-5-oxazolidinylmethyl]acetamide], the MIC in the experiment on Escherichia coli (Mueller-Hinton broth, 24-hour) worked out at 100 µg/mL (≈ 344 µM); in experiment [1] (Mueller-Hinton broth, 24-hour), 3.1 µg/mL (≈ 10.7 µM). Moreover, the median effective dose (ED50) with Staphylococcus aureus [2] (setting [4]) and in the experiment on Staphylococcus aureus [3] was less than 4.4 mg/kg in each case.
With `CC(=O)NCC1CN(c2ccc([N+](=O)[O-])cc2[N+](=O)[O-])C(=O)O1` (single isomer, unassigned) [Example 147, (l)-N-[3-(2,4-Dinitrophenyl)-2-oxooxazolidin-5-ylmethyl]acetamide], the MIC in the experiment on Escherichia coli (24 h) was greater than 200 µg/mL; in experiment [1], 200 µg/mL (≈ 617 µM). In addition, the ED50 in the experiment with Staphylococcus aureus [2] was 44.4 mg/kg.
As to `CC(=O)NCC1CN(c2ccc(NC(C)=O)cc2)C(=O)O1` (single isomer, unassigned) [Example 150, (l)-N-[3-[4-(Acetylamino)phenyl]-2-oxooxazolidin-5-ylmethyl]acetamide], the MIC in the experiment with Escherichia coli (Mueller-Hinton broth, 24-hour) was greater than 200 µg/mL; in experiment [1] (Mueller-Hinton broth, 24-hour), 200 µg/mL (≈ 687 µM). Also, the ED50 was 56.9 mg/kg with Staphylococcus aureus [2] (setting [4]) and 12.5 mg/kg in the experiment on Staphylococcus aureus [3].
Take `CC(=O)NCC1CN(c2ccc(SCC#N)cc2)C(=O)O1` (single isomer, unassigned) [Example 154, (l)-N-[3-[4-(Cyanomethylthio)phenyl]-2-oxooxazolidin-5-ylmethyl]acetamide]: the minimum inhibitory concentration (MIC) in the experiment on Escherichia coli (Mueller-Hinton broth, 24-hour) was greater than 200 µg/mL; in experiment [1] (Mueller-Hinton broth, 24-hour), 3.2 µg/mL (≈ 10.5 µM).
`CC(=O)NCC1CN(c2ccc(CBr)cc2)C(=O)O1` (single isomer, unassigned) [Example 166, (l)-N-[3-[4-(Bromomethyl)phenyl]-2-oxooxazolidin-5-ylmethyl]acetamide]: the minimum inhibitory concentration (MIC) was greater than 128 µg/mL with Escherichia coli (Mueller-Hinton broth, 24-hour) and 64 µg/mL (≈ 196 µM) in experiment [1] (Mueller-Hinton broth, 24-hour).
In the case of `CC(=O)NCC1CN(c2ccc(C=O)cc2)C(=O)O1` (single isomer, unassigned) [Example 185, (l)-N-[3-(4-Formylphenyl)-2-oxo-5-oxazolidinylmethyl]acetamide], the MIC in the experiment on Escherichia coli (Mueller-Hinton broth, 24-hour) was greater than 128 µg/mL; in experiment [1] (Mueller-Hinton broth, 24-hour), greater than 128 µg/mL. Also, the median effective dose (ED50) in the experiment on Staphylococcus aureus [3] worked out at 35.9 mg/kg.
For `CSc1ccc(N2CC(CN=[N+]=[N-])OC2=O)cc1` (stereo not shown) [Example 4], the MIC in the experiment with Escherichia coli (Mueller-Hinton broth, 24-hour) was greater than 200 µg/mL; in experiment [1] (Mueller-Hinton broth, 24-hour), greater than 200 µg/mL. For the same molecule, in the experiment on Staphylococcus aureus [2] (setting [4]), the ED50 came out at 43.3 mg/kg.
Consider `CS(=O)(=O)c1ccc(N2CC(CNC(=O)C(F)(F)F)OC2=O)cc1` (stereo not shown) [Example 28], for which the MIC in the experiment on Escherichia coli (Mueller-Hinton broth, 24-hour) stood at 50 µg/mL (≈ 136 µM); in experiment [1] (Mueller-Hinton broth, 24-hour) it was 12.5 µg/mL (≈ 34.1 µM). The ED50 in the experiment on Staphylococcus aureus [2] (setting [4]) is 71.3 mg/kg.
Taken in the same sequence, the figures for `CCCC(=O)NCC1CN(c2ccc(S(C)(=O)=O)cc2)C(=O)O1` (stereo not shown) [Example 29] were 100 µg/mL (≈ 294 µM), 12.5 µg/mL (≈ 36.7 µM) and 88.7 mg/kg.
Consider `CNC(=O)NCC1CN(c2ccc(S(C)(=O)=O)cc2)C(=O)O1` (stereo not shown) [Example 35], for which the MIC amounted to 200 µg/mL (≈ 611 µM) in the experiment with Escherichia coli (Mueller-Hinton broth, 24-hour) and 25 µg/mL (≈ 76.4 µM) in experiment [1] (Mueller-Hinton broth, 24-hour). For the same molecule, the ED50 in the experiment with Staphylococcus aureus [2] (setting [4]) came out at 35.8 mg/kg.
The like results for `CC(=O)NCC1CN(c2cccc(C(C)=O)c2)C(=O)O1` (stereo not shown) [Example 37] were, in that order, greater than 200 µg/mL, 200 µg/mL (≈ 724 µM) and 62.9 mg/kg.
With `C=CC(=O)NCC1CN(c2ccc(SC)cc2)C(=O)O1` (stereo not shown) [Example 40], the MIC in the experiment with Escherichia coli (Mueller-Hinton broth, 24-hour) is greater than 200 µg/mL; in experiment [1] (Mueller-Hinton broth, 24-hour), 12.5 µg/mL (≈ 42.8 µM). The ED50 in the experiment on Staphylococcus aureus [2] (setting [4]) was determined as 53.1 mg/kg.
As to `COc1ccc(N2CC(CNC(C)=O)OC2=O)cc1` (stereo not shown) [Example 44], the MIC in the experiment with Escherichia coli (Mueller-Hinton broth, 24-hour) is greater than 200 µg/mL; in experiment [1] (Mueller-Hinton broth, 24-hour) it was 100 µg/mL (≈ 378 µM). Also, in the experiment with Staphylococcus aureus [2] (setting [4]), the ED50 amounted to 30.3 mg/kg.
Take `CCCOC(=O)NCC1CN(c2ccc(S(C)(=O)=O)cc2)C(=O)O1` (stereo not shown) [Example 70]: the MIC with Escherichia coli (Mueller-Hinton broth, 24-hour) was greater than 200 µg/mL; in experiment [1] (Mueller-Hinton broth, 24-hour) it was 50 µg/mL (≈ 140 µM). Moreover, the ED50 with Staphylococcus aureus [2] (setting [4]) is 51.7 mg/kg.
In the case of `COC(OC)C(=O)NCC1CN(c2ccc(SC)cc2)C(=O)O1` (stereo not shown) [Example 73], the MIC was greater than 200 µg/mL with Escherichia coli (Mueller-Hinton broth, 24-hour) and greater than 200 µg/mL in experiment [1] (Mueller-Hinton broth, 24-hour). For the same molecule, the ED50 in the experiment with Staphylococcus aureus [2] (setting [4]) amounted to 59.5 mg/kg.
Turning to `COC(OC)C(=O)NCC1CN(c2ccc(S(C)(=O)=O)cc2)C(=O)O1` (stereo not shown) [Example 74], the minimal inhibitory concentration (MIC) in the experiment on Escherichia coli (Mueller-Hinton broth, 24-hour) is greater than 200 µg/mL; in experiment [1] (Mueller-Hinton broth, 24-hour), 100 µg/mL (≈ 269 µM). Further, the ED50 in the experiment with Staphylococcus aureus [2] (setting [4]) came to 96.6 mg/kg.
Regarding `CCOC(OCC)C(=O)NCC1CN(c2ccc(SC)cc2)C(=O)O1` (stereo not shown) [Example 75], the MIC with Escherichia coli (Mueller-Hinton broth, 24-hour) was greater than 200 µg/mL; in experiment [1] (Mueller-Hinton broth, 24-hour), greater than 200 µg/mL. In addition, the ED50 in the experiment on Staphylococcus aureus [2] (setting [4]) was 130 mg/kg.
As to `CCOC(OCC)C(=O)NCC1CN(c2ccc(S(C)(=O)=O)cc2)C(=O)O1` (stereo not shown) [Example 76], the MIC with Escherichia coli (Mueller-Hinton broth, 24-hour) was greater than 200 µg/mL; in experiment [1] (Mueller-Hinton broth, 24-hour), greater than 200 µg/mL. Also, the ED50 with Staphylococcus aureus [2] (setting [4]) stood at 58 mg/kg.
Turning to `CS(=O)(=O)c1ccc(N2CC(CNC(N)=O)OC2=O)cc1` (stereo not shown) [Example 77], the MIC in the experiment with Escherichia coli (Mueller-Hinton broth, 24-hour) is greater than 200 µg/mL; in experiment [1] (Mueller-Hinton broth, 24-hour), 200 µg/mL (≈ 638 µM). In addition, the ED50 in the experiment on Staphylococcus aureus [3] stood at 70.9 mg/kg.
Taken in the same sequence, the figures for `CS(=O)(=O)c1ccc(N2CC(CNC(=O)C(N)c3ccccc3)OC2=O)cc1` (stereo not shown) [Example 78] were greater than 200 µg/mL, greater than 200 µg/mL and 67.1 mg/kg.
On to `C=CC(=O)NCC1CN(c2ccc([S+](C)[O-])cc2)C(=O)O1` (stereo not shown) [Example 91], for which the minimum inhibitory concentration (MIC) was greater than 200 µg/mL with Escherichia coli (Mueller-Hinton broth, 24-hour) and 25 µg/mL (≈ 81.1 µM) in experiment [1] (Mueller-Hinton broth, 24-hour). Besides, the ED50 in the experiment on Staphylococcus aureus [2] (setting [4]) was 50.7 mg/kg.
On to `CSc1ccc(N2CC(CNC(=O)CCCl)OC2=O)cc1` (stereo not shown) [Example 92], for which the MIC was greater than 200 µg/mL with Escherichia coli (Mueller-Hinton broth, 24-hour) and 50 µg/mL (≈ 152 µM) in experiment [1] (Mueller-Hinton broth, 24-hour). In addition, in the experiment on Staphylococcus aureus [2] (setting [4]), the ED50 was 31 mg/kg.
As to `C[S+]([O-])c1ccc(N2CC(CNC(=O)CCCl)OC2=O)cc1` (stereo not shown) [Example 93], the minimal inhibitory concentration (MIC) in the experiment on Escherichia coli (Mueller-Hinton broth, 24-hour) was greater than 200 µg/mL; in experiment [1] (Mueller-Hinton broth, 24-hour) it was 50 µg/mL (≈ 145 µM). The ED50 in the experiment on Staphylococcus aureus [2] (setting [4]) is greater than 120 mg/kg.
With `CC(=O)NCC1CN(c2ccc(C#CCO)cc2)C(=O)O1` (stereo not shown) [Example 103], the MIC is greater than 50 µg/mL with Escherichia coli (Mueller-Hinton broth, 24-hour) and 12.5 µg/mL (≈ 43.4 µM) in experiment [1] (Mueller-Hinton broth, 24-hour).
The like results for `CC(=O)NCC1CN(c2ccc(C(O)CO)cc2)C(=O)O1` (stereo not shown) [Example 104] were, in that order, greater than 128 µg/mL and 32 µg/mL (≈ 109 µM).
Taken in the same sequence, the figures for `CC(=O)NCC1CN(c2ccc(CO)cc2)C(=O)O1` (stereo not shown) [Example 106] were greater than 128 µg/mL and 64 µg/mL (≈ 242 µM).
